From patent EP0474874B1, “Maillard Reaction inhibitor compositions” (Senju Pharmaceutical Co., Ltd., priority 1990, dated 1991)

Assays:
[1] = tested on: furosine formation; test: Inhibition of furosine formation (non-enzymatic glycosylation of BSA with glucose, HPLC); type: biochemical, bovine; settings: 5 mM test compound, 20 mg/ml BSA, 50 mM glucose, 50 mM phosphate buffer pH 7.3, 4 weeks at 37 °C
Method: Sample solutions as shown below were aseptically prepared from bovine serum albumine (No. A-8022, Sigma)(hereinafter referred to as BSA), 50 mM phosphate buffer solution (pH 7.3) and the test compounds listed in Table 1 and aminoguanidine.
The sample solutions were kept for 4 weeks at 37 °C, and the amount of furosine which was formed by non-enzymatic glycosylation was determined by HPLC according to the method of Schleicher et al. [J. Clin. Biochem., 19:81-87 (1981).] Thus, the sample solutions after reaction were dialyzed, and aliquots of 1 ml were lyophylized and then hydrolyzed by the addition of 1 ml of 6 N hydrochloric acid followed by heating at 100 °C for 20 hours. After removal of hydrochloric acid by evaporation, 1 ml of water was added to each sample, and the samples were subjected to filtration using a filter with the pore size of 0.45 µm. The filtrate was used as the sample for HPLC. ODS-120T (Tosoh Corporation) was used for the column and 7 mM phosphoric acid solution was used as the eluant. The absorbance peak whose ratio of peak area at […] was 3.9/1 was regarded as the peak corresponding to furosine.
Upon the area of the peak of furosine of each sample, the inhibition rate of furosine formation by the test compound was calculated as follows. Inhibition rate (%)=(c-d)÷(c-n)×100 [formula] c; peak area of furosine of the control sample d; peak area of furosine of the test sample n; peak area of furosine of the normal sample

[2] = tested on: Maillard's reaction; settings: in vitro; cited from earlier work
[3] = tested on: AGE formation in arterial walls; settings: diabetic rats, in vivo; cited from earlier work
[4] = patient suffering from diabetes mellitus; cited from earlier work

Nc1cccc(C(=O)O)c1O [AB-6, 3-aminosalicylic acid]
Inhibition rate (%) [1]: 53.4%

Nc1ccc(O)c(C(=O)O)c1 [AB-4, 5-aminosalicylic acid]
Inhibition rate (%) [1]: 50.7%

N=C(N)NN [aminoguanidine]
Inhibition rate (%) [1]: 8.0%
inhibition of Maillard's reaction [2]: inhibits Maillard's reaction in vitro
AGE formation in arterial walls [3]: suppresses AGE formation in arterial walls of diabetic rats in vivo

Nc1ccc(C(=O)O)c(O)c1 [AB-5, 4-aminosalicylic acid]
Inhibition rate (%) [1]: 70.0%
adverse effect upon treatment [4]: developed hypoglycaemic coma

Nc1cc([N+](=O)[O-])ccc1C(=O)O [AB-3, 4-nitroanthranilic acid]
Inhibition rate (%) [1]: 47.6%

Nc1cc(C(=O)O)ccc1O [AB-7, 3-amino-4-hydroxybenzoic acid]
Inhibition rate (%) [1]: 60.4%

Nc1c(O)cccc1C(=O)O [AB-2, 3-hydroxyanthranilic acid]
Inhibition rate (%) [1]: 69.4%

Nc1ccc(O)cc1C(=O)O [AB-1, 5-hydroxyanthranilic acid]
Inhibition rate (%) [1]: 94.1%
